This is an account of results in patent US10239849B2 (Merck Sharp & Dohme Corp., priority 2015, dated 2019).

Assay [1] deals with T1, glutathione-S-transferase (GST) tagged LXRalpha LBD (ligand binding domain) (Homo sapiens, UniProt Q13133).
T1 construct: purchased Invitrogen pv4655
T1 sequence (Q13133 209-447 limits assumed): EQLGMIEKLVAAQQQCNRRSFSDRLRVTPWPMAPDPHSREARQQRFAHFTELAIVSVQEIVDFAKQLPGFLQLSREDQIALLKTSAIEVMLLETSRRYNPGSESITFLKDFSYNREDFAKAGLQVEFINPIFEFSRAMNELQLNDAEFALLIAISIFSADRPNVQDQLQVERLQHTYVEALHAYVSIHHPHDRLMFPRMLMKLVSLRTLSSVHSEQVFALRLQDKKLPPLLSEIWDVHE
The assay can be described thus: LanthaScreen TR-FRET Liver X Receptor Coactivator Assay, LXR alpha-LBD. The following applies: for Emax: efficacy in relation to reference dual agonist T1317, read-out: LXR alpha activity at max dose (%) (Emax); for EC50: potency (Inflection Point) of co-activator recruitment, TR-FRET, read-out: LXR alpha IP. The assay is classed as biochemical. The procedure, abridged: (§1)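 Test ligands were combined with the receptor LBD, after which terbium-labelled anti-GST antibody and a fluorescein-tagged coactivator peptide were introduced together. Plates sat at room temperature, then time-resolved FRET was measured.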

The target of assay [2] is T2, glutathione-S-transferase (GST) tagged LXRbeta LBD (ligand binding domain) (Homo sapiens, UniProt P55055).
T2 construct: purchased Invitrogen pv4658.pps
T2 sequence (P55055 222-460 limits assumed): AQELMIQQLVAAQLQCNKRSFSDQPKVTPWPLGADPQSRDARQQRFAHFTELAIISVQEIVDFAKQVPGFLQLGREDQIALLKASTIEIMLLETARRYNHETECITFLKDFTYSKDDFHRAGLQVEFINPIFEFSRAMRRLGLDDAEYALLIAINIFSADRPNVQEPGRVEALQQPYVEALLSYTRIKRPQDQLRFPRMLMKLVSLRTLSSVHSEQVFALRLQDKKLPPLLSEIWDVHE
The assay can be described thus: LanthaScreen TR-FRET Liver X Receptor Coactivator Assay, LXR beta-LBD. To be noted: for Emax: efficacy in relation to reference dual agonist T1317, read-out: LXR beta activity at max dose (%) (Emax); for EC50: potency (Inflection Point) of co-activator recruitment, TR-FRET, read-out: LXR beta IP. Format: biochemical. The procedure, abridged: as §1

As for `CN(C)C(=O)c1ccc(-c2ccc(N3CCN(C(=O)c4c(F)cccc4Cl)CC3)c(Cl)c2)cc1Cl` [Example 4-5, 3,3′-dichloro-4′-{4-[(2-chloro-6-fluorophenyl)carbonyl]piperazin-1-yl}-N,N-dimethylbiphenyl-4-carboxamide], in assay [1], the Emax worked out at 63% and the EC50 was 618 nM. In assay [2], the Emax was found to be 88% and the EC50 turned out to be 39 nM.
Take `CN(C)C(=O)c1ccc(-c2cnc(N3CCN(S(=O)(=O)Cc4ccccc4F)CC3)c(C#N)c2)cc1Cl` [Example 1-10, 2-chloro-4-(5-cyano-6-{4-[(2-fluorobenzyl)sulfonyl]piperazin-1-yl}pyridin-3-yl)-N,N-dimethylbenzamide]: in assay [1], the Emax is 18% and the EC50 stood at 733 nM. Besides, in assay [2], the Emax was 65% and the EC50 is 162 nM.
Regarding `CN(C)C(=O)c1ccc(-c2cnc(N3CCN(C(=O)[C@](C)(O)c4ccccc4)CC3)c(C#N)c2)cc1Cl` [Example 2-19, 2-chloro-4-(5-cyano-6-{4-[(2R)-2-hydroxy-2-phenylpropanoyl]piperazin-1-yl}pyridin-3-yl)-N,N-dimethylbenzamide], in assay [1], the Emax turned out to be 27% and the EC50 was found to be 60200 nM. Besides, in assay [2], the Emax was 77% and the EC50 was determined as 27 nM.
Regarding `CN(C)C(=O)c1ccc(-c2cc(Cl)c(N3CCN(S(=O)(=O)c4c(Cl)cccc4Cl)CC3)c(Cl)c2)cc1Cl` [Example 4-10, 3,3′,5′-trichloro-4′-{4-[(2,6-dichlorophenyl)sulfonyl]piperazin-1-yl}-N,N-dimethylbiphenyl-4-carboxamide], in assay [1], the Emax is 30% and the EC50 came to 1260 nM. Moreover, in assay [2], the Emax came to 77% and the EC50 amounted to 94 nM.
In the case of `CCCCC(C)(C)C(=O)N1CCN(c2ncc(-c3ccc(C(=O)N(C)C)c(Cl)c3)cc2C#N)CC1` [Example 2-12, 2-chloro-4-{5-cyano-6-[4-(2,2-dimethylhexanoyl)piperazin-1-yl]pyridin-3-yl}-N,N-dimethylbenzamide], in assay [1], the Emax was 43% and the EC50 was 1750 nM. In assay [2], the Emax came out at 79% and the EC50 worked out at 27 nM.
Take `CC(C)C(O)(C(=O)N1CCN(c2ncc(-c3cc(Cl)c(C(=O)N(C)C)c(Cl)c3)cc2C#N)CC1)C(F)(F)F` (single isomer, unassigned) [Example 7-5, 2,6-dichloro-4-(5-cyano-6-{4-[2-hydroxy-3-methyl-2-(trifluoromethyl)butanoyl]piperazin-1-yl}pyridin-3-yl)-N,N-dimethylbenzamide]: in assay [1], the Emax was determined as 41% and the EC50 amounted to 929 nM. In assay [2], the Emax is 93% and the EC50 was determined as 12 nM.
On to `CC(C)(C)OC(=O)N1CCN(c2ncc(-c3ccc(C(=O)NCCCO)c(Cl)c3)cc2C#N)CC1` [Example 5-10, tert-butyl 4-(5-{3-chloro-4-[(3-hydroxypropyl)carbamoyl]phenyl}-3-cyanopyridin-2-yl)piperazine-1-carboxylate], for which the Emax in assay [1] was determined as 37%; in assay [2] it was 63%. The EC50 amounted to 2710 nM in assay [1] and 1090 nM in assay [2].
On the same counts, the results for `CCC(C)(C)C(=O)N1CCN(c2ncc(-c3ccc(C(=O)N(C)C)c(Cl)c3)cc2C#N)CC1` [Example 2-5, 2-chloro-4-{5-cyano-6-[4-(2,2-dimethylbutanoyl)piperazin-1-yl]pyridin-3-yl}-N,N-dimethylbenzamide] are 62%, 97%, 11100 nM and 109 nM.
As for `C#Cc1cc(-c2ccc(C(=O)N(C)C)c(Cl)c2)cnc1N1CCN(C(=O)OC(C)(C)C)CC1` [Example 9-5], in assay [1], the Emax worked out at 49% and the EC50 was 2360 nM. Further, in assay [2], the Emax turned out to be 59% and the EC50 turned out to be 62 nM.
The corresponding values for `CN(C)C(=O)c1ccc(-c2cnc(N3CCN(C(=O)C(=O)C(F)(F)F)CC3)c(C#N)c2)cc1Cl` [Example 2-9, 2-chloro-4-{5-cyano-6-[4-(3,3,3-trifluoro-2-oxopropanoyl)piperazin-1-yl]pyridin-3-yl}-N,N-dimethylbenzamide] are 42%, 16600 nM, 99% and 245 nM.
Take `CN(C)C(=O)c1ccc(-c2cnc(N3CCN(C(=O)OCC4(C)CC4)CC3)c(C#N)c2)cc1Cl` [Example 3-12, (1-methylcyclopropyl)methyl 4-{5-[3-chloro-4-(dimethylcarbamoyl)phenyl]-3-cyanopyridin-2-yl}piperazine-1-carboxylate]: in assay [1], the Emax is 30% and the EC50 came to 4330 nM. In assay [2], the Emax turned out to be 55% and the EC50 was 39 nM.
As to `CN(C)C(=O)c1ccc(-c2cnc(N3CCN(C(=O)c4c(F)cccc4Cl)CC3)c(C#N)c2)cc1Cl` [Example 2-21, 2-chloro-4-(6-{4-[(2-chloro-6-fluorophenyl)carbonyl]piperazin-1-yl}-5-cyanopyridin-3-yl)-N,N-dimethylbenzamide], in assay [1], the maximal response (Emax) is 41% and the EC50 came out at 6290 nM. In assay [2], the Emax stood at 59% and the EC50 was found to be 147 nM.
For `CC(C)(C)OC(=O)N1CCN(c2ncc(-c3ccc(C(=O)N4CC[C@H](O)C4)c(Cl)c3)cc2C#N)CC1` [Example 5-13, tert-butyl 4-[5-(3-chloro-4-{[(3S)-3-hydroxypyrrolidin-1-yl]carbonyl}phenyl)-3-cyanopyridin-2-yl]piperazine-1-carboxylate], in assay [1], the Emax is 44% and the EC50 was 6900 nM. Besides, in assay [2], the Emax is 62% and the EC50 came to 262 nM.
The corresponding values for `CC(C)(C)OC(=O)N1CCN(c2ncc(-c3ccc(C(=O)N(CCCO)C4CC4)c(Cl)c3)cc2C#N)CC1` [Example 5-20, tert-butyl 4-(5-{3-chloro-4-[cyclopropyl(3-hydroxypropyl)carbamoyl]phenyl}-3-cyanopyridin-2-yl)piperazine-1-carboxylate] are 31%, 4070 nM, 55% and 565 nM.
On to `CN(C)C(=O)c1ccc(-c2cc(Cl)c(N3CCN(C(=O)c4ccccc4Cl)CC3)c(Cl)c2)cc1Cl` [Example 4-6, 3,3′,5′-trichloro-4′-{4-[(2-chlorophenyl)carbonyl]piperazin-1-yl}-N,N-dimethylbiphenyl-4-carboxamide], for which, in assay [1], the Emax is 16% and the EC50 was found to be 1600 nM. In addition, in assay [2], the Emax came to 39% and the EC50 was determined as 188 nM.
As to `CN(C)C(=O)c1ccc(-c2ccc(N3CCN(S(=O)(=O)c4c(Cl)cccc4Cl)CC3)cc2)cc1Cl` [Example 4-13, 3-chloro-4′-{4-[(2,6-dichlorophenyl)sulfonyl]piperazin-1-yl}-N,N-dimethylbiphenyl-4-carboxamide], in assay [1], the Emax is 29% and the EC50 worked out at 5730 nM. In addition, in assay [2], the Emax was determined as 97% and the EC50 came out at 380 nM.
As for `CN(C)C(=O)c1ccc(-c2ccc(N3CCN(C(=O)c4ccccc4Cl)CC3)c(Cl)c2)cc1Cl` [Example 4-4, 3,3′-dichloro-4′-{4-[(2-chlorophenyl)carbonyl]piperazin-1-yl}-N,N-dimethylbiphenyl-4-carboxamide], in assay [1], the Emax turned out to be 44% and the EC50 worked out at 1310 nM. Further, in assay [2], the Emax amounted to 75% and the EC50 worked out at 98 nM.
